Where “and” joins values, the source holds several entries; their conditions need not be identical. Equal entries are not always repeated.
Experiments:
[1] = tested on: HIV-1 NL4-3 in MT-4 cells; test: Two-drug combination antiviral cytoprotection (CPE) assay, MacSynergy II analysis; type: cell-based; details: HIV-1 NL4-3 virus in MT4 cells
Description: On the day preceding the assay, the cells were split 1:2 to assure they were in an exponential growth phase at the time of infection.
Combination cytotoxicity was evaluated in parallel on two identical assay plates (i.e., duplicate measurements) that included cell control wells.

[2] = Plasma exposures following IV infusion alone or in combination to Sprague-Dawley rats
Description: The pharmacokinetics of EFdA and prodrug formula 4-A, as well as lenacapavir were studied in rats after IV infusion administration alone or in combination at a dose of 1.0 mg/kg each.
Formulations: The prodrugs and lenacapavir were formulated alone or in combination as solutions at 1.0 mg/mL each in 20% […], 10% Solutol aqueous solution within 0.5 hour prior to dose.
Dose Administration and Sample Collection: The in-life phase of this study was conducted at the WuXi Apptec (WuXi) at Shanghai, China in accordance with the WuXi Institutional Animal Care and Use Committee (IACUC) standard animal procedures along with the IACUC guidelines that are in compliance with the Animal Welfare Act, the Guide for the Care and Use of Laboratory Animals. and was approved by the IACUA Committee. Male Sprague-Dawley rats (0.262+/−0.019 kg) were used for the studies. Each drug was administered as a single dose by 30-min IV infusion (1 ml/kg) alone or in combination. Plasma samples were collected at 0 (pre-dose), 5, 10, 15 and 30 min, 1, 2, 4, 7, 12 and 24 h post-dose. Blood (approximately 0.1 mL) was processed immediately for plasma by centrifugation at 3,200 g at 4° C. for 10 min within half an hour of collection. Plasma samples were frozen and maintained at −70° C. until analyzed. To stabilize the prodrug at the sample collection and subsequent analysis, the following stabilizing reagents were added to the blood collection K2EDTA tubes on wet ice prior to sample collection: for each 100 mL of blood, 10 mL of premade inhibitor cocktail consists of 600 mM Citric Acid, 400 mM PMSF, 400 mM NaF, and 400 mM Dichlorvos.
Determination of EFdA and Prodrugs in plasma: Briefly, plasma (20 μL) was mixed with 100 l acetonitrile to precipitate protein. Consistent with sample collection procedure, the same cocktail protocol was also added to stabilize the prodrug in the standard and QC samples.
Bioanalysis: A Sciex API-6500 Plus triplequadrupole mass spectrometer coupled with a Waters Acquity UPLC system (Framingham, MA 01701) was used for quantitative analysis of plasma samples. The column was a Waters HSS T3 column (2.1×50 mm, 1.8 micrometer). The mobile phases used were: A, 0.1% formic acid in water; B, 0.1% formic acid in acetonitrile. For the analysis of EFdA and prodrugs in plasma, the flow rate was 0.6 mL/min with a total run time of 2.0 min. […] Detection of the prodrug and EFdA were achieved using positive ion electrospray mass spectroscopic mode using unit resolution mode. Multiple reaction monitoring (MRM) modes were used to quantify both prodrug and EFdA, e.g. the MRM transition for EFdA was 294.0-154.2 Da, and the transition for prodrug 4-A was 449.3-164.9 Da. For the analysis of lenacapavir in plasma, the flow rate was 0.7 mL/min with a total run time of 1.5 min. The HPLC gradient was initiated at 95% A/5% B for 0.50 min, followed by linear gradient increase to […] over the next 0.2 min; the gradient was subsequently maintained at 100% of mobile B over the next 0.7 min before ramping down to 95% mobile phase A within the following 0.1 min. Detection of lenacapavir was achieved using positive ion electrospray mass spectroscopic mode using unit resolution mode. Multiple reaction monitoring (MRM) modes were used to quantify lenacapavir, e.g. the MRM transition for lenacapavir was 968.1-869.4 Da. Peak areas were integrated by the Sciex program Analyst®, version 1.6.3, operating on a Windows 7 computer where concentrations were determined by a weighted (1/x2) linear regression of peak area ratios (peak area of EFdA/peak area of corresponding IS) versus the nominal concentrations of the plasma calibration standards. Calculations were performed on unrounded numbers. Overall, Analyst® determined the precision and accuracy for the calibration standards and QC samples.

[3] = Prodrug formula 4-A IV infusion 1.0 mg/kg alone, 4.00 hrs, individual animals
[4] = Prodrug formula 4-A IV infusion 1.0 mg/kg alone, 7.00 hrs, individual animals
[5] = Prodrug formula 4-A IV infusion 1.0 mg/kg alone, 12.0 hrs, individual animals
[6] = Prodrug formula 4-A IV infusion 1.0 mg/kg alone, 24.0 hrs, individual animals
[7] = Prodrug formula 4-A IV infusion 1.0 mg/kg with Lenacapavir, 7.00 hrs, individual animals
[8] = Prodrug formula 4-A IV infusion 1.0 mg/kg with Lenacapavir, 12.0 hrs, individual animals
[9] = Prodrug formula 4-A IV infusion 1.0 mg/kg with Lenacapavir, 24.0 hrs, individual animals
[10] = Prodrug formula 4-A IV infusion 1.0 mg/kg with Lenacapavir, 48.0 hrs, individual animals
[11] = Prodrug formula 4-A IV infusion 1.0 mg/kg with Lenacapavir, 72.0 hrs, individual animals

SMILES: C#C[C@]1(COC(=O)OCc2oc(=O)oc2C)O[C@@H](n2cnc3c(N)nc(F)nc32)C[C@@H]1O [Formula 4-A, ((2R,3S,5R)-5-(6-amino-2-fluoro-9H-purin-9-yl)-2-ethynyl-3-hydroxytetrahydrofuran-2-yl)methyl ((5-methyl-2-oxo-1,3-dioxol-4-yl)methyl) carbonate]
- Antiviral activity upon combination with lenacapavir [1]: synergistic antiviral activity
- Prodrug formula 4A Concentrations in Rat Plasma When Dosed alone ([2]; Prodrug formula 4-A IV infusion 1.0 mg/kg alone, 0.0830 hrs, individual animals): BQL
- Prodrug formula 4A Concentrations in Rat Plasma When Dosed alone ([2]; Prodrug formula 4-A IV infusion 1.0 mg/kg alone, 0.167 hrs, individual animals): BQL
- Prodrug formula 4A Concentrations in Rat Plasma When Dosed alone ([2]; Prodrug formula 4-A IV infusion 1.0 mg/kg alone, 0.250 hrs, individual animals): BQL
- Prodrug formula 4A Concentrations in Rat Plasma When Dosed alone ([2]; Prodrug formula 4-A IV infusion 1.0 mg/kg alone, 0.500 hrs, individual animals): BQL
- Prodrug formula 4A Concentrations in Rat Plasma When Dosed alone ([2]; Prodrug formula 4-A IV infusion 1.0 mg/kg alone, 1.00 hrs, individual animals): BQL
- Prodrug formula 4A Concentrations in Rat Plasma When Dosed alone ([2]; Prodrug formula 4-A IV infusion 1.0 mg/kg alone, 2.00 hrs, individual animals): BQL
- EFdA Concentrations in Rat Plasma When Dosed Alone [2, 3]: BQL
- Prodrug formula 4A Concentrations in Rat Plasma When Dosed alone [2, 3]: BQL
- EFdA Concentrations in Rat Plasma When Dosed Alone [2, 4]: BQL
- Prodrug formula 4A Concentrations in Rat Plasma When Dosed alone [2, 4]: BQL
- EFdA Concentrations in Rat Plasma When Dosed Alone [2, 5]: BQL
- Prodrug formula 4A Concentrations in Rat Plasma When Dosed alone [2, 5]: BQL
- EFdA Concentrations in Rat Plasma When Dosed Alone [2, 6]: BQL
- Prodrug formula 4A Concentrations in Rat Plasma When Dosed alone [2, 6]: BQL
- Prodrug formula 4A Concentrations in Rat Plasma When Dosed with Lenacapavir ([2]; Prodrug formula 4-A IV infusion 1.0 mg/kg with Lenacapavir, 0.0830 hrs, individual animals): 1.37 ng/mL and 5.19 ng/mL and 1.54 ng/mL and 2.80 ng/mL
- Prodrug formula 4A Concentrations in Rat Plasma When Dosed with Lenacapavir ([2]; Prodrug formula 4-A IV infusion 1.0 mg/kg with Lenacapavir, 0.167 hrs, individual animals): BQL
- Prodrug formula 4A Concentrations in Rat Plasma When Dosed with Lenacapavir ([2]; Prodrug formula 4-A IV infusion 1.0 mg/kg with Lenacapavir, 0.250 hrs, individual animals): 1.13 ng/mL and BQL (2×) and 2.38 ng/mL
- Prodrug formula 4A Concentrations in Rat Plasma When Dosed with Lenacapavir ([2]; Prodrug formula 4-A IV infusion 1.0 mg/kg with Lenacapavir, 0.500 hrs, individual animals): BQL
- Prodrug formula 4A Concentrations in Rat Plasma When Dosed with Lenacapavir ([2]; Prodrug formula 4-A IV infusion 1.0 mg/kg with Lenacapavir, 1.00 hrs, individual animals): BQL
- Prodrug formula 4A Concentrations in Rat Plasma When Dosed with Lenacapavir ([2]; Prodrug formula 4-A IV infusion 1.0 mg/kg with Lenacapavir, 2.00 hrs, individual animals): BQL
- Prodrug formula 4A Concentrations in Rat Plasma When Dosed with Lenacapavir ([2]; Prodrug formula 4-A IV infusion 1.0 mg/kg with Lenacapavir, 4.00 hrs, individual animals): BQL
- EFdA Concentrations in Rat Plasma When Dosed with Lenacapavir [2, 7]: BQL
- Prodrug formula 4A Concentrations in Rat Plasma When Dosed with Lenacapavir [2, 7]: BQL
- EFdA Concentrations in Rat Plasma When Dosed with Lenacapavir [2, 8]: BQL
- Prodrug formula 4A Concentrations in Rat Plasma When Dosed with Lenacapavir [2, 8]: BQL
- EFdA Concentrations in Rat Plasma When Dosed with Lenacapavir [2, 9]: BQL
- Prodrug formula 4A Concentrations in Rat Plasma When Dosed with Lenacapavir [2, 9]: BQL
- EFdA Concentrations in Rat Plasma When Dosed with Lenacapavir [2, 10]: BQL
- Prodrug formula 4A Concentrations in Rat Plasma When Dosed with Lenacapavir [2, 10]: BQL
- EFdA Concentrations in Rat Plasma When Dosed with Lenacapavir [2, 11]: BQL
- Prodrug formula 4A Concentrations in Rat Plasma When Dosed with Lenacapavir [2, 11]: BQL
- concentration at 0.25 h ([2]; male, Sprague-Dawley, rat, in vivo, 1 mg/kg, Prodrug formula 4A Concentrations in Rat Plasma When Dosed alone, Prodrug formula 4-A IV infusion 1.0 mg/kg alone, 0.250 hrs, individual animals): 2.27 ng/mL
- concentration at 0.083 h ([2]; male, Sprague-Dawley, rat, in vivo, Prodrug formula 4A Concentrations in Rat Plasma When Dosed with Lenacapavir, Prodrug formula 4-A IV infusion 1.0 mg/kg with Lenacapavir, 0.0830 hrs, Mean): 2.73 ng/mL
- concentration at 0.25 h ([2]; male, Sprague-Dawley, rat, in vivo, Prodrug formula 4A Concentrations in Rat Plasma When Dosed with Lenacapavir, Prodrug formula 4-A IV infusion 1.0 mg/kg with Lenacapavir, 0.250 hrs, Mean): 1.76 ng/mL
- Prodrug detected in the systemic circulation ([2]; rats, in the absence and presences of lenacapavir): minimal prodrug detected in the systemic circulation
